From PMC7730235, “Discovery of a Novel Class of Covalent Dual Inhibitors Targeting the Protein Kinases BMX and BTK” (International Journal of Molecular Sciences, 2020)

Assays:
[1] = target: T1, kinase domain of BMX (Homo sapiens, UniProt P51813); experiment: Mass spectrometric investigation of covalent binding to BMX (ESI-TOF); details: 4 °C; for native (unmodified) BMX fraction, 30 min / native (unmodified) BMX fraction, 60 min / native (unmodified) BMX fraction, 120 min / native (unmodified) BMX fraction, 240 min / BMX covalent adduct fraction, 30 min / BMX covalent adduct fraction, 60 min / BMX covalent adduct fraction, 120 min / BMX covalent adduct fraction, 240 min: 1.5-fold molar excess of inhibitor; for covalent labeling of BMX (in words): complete labeling refers to 30 min
T1 construct: The kinase domains of JAK3 and BMX at 2 μM
T1 sequence (P51813 417-675 limits assumed): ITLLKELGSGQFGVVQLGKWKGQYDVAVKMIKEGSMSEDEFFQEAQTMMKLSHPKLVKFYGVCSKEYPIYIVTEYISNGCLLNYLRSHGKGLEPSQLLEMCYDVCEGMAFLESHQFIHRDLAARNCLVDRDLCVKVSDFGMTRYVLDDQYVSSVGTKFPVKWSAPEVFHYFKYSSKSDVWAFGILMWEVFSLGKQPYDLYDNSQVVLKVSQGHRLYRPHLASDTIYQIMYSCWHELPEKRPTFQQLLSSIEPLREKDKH
Experimental: The kinase domain of BMX was diluted to 0.05 mM with buffer containing 20 mM Tris pH 8.0, 200 mM NaCl, 0.5 mM TCEP (pH 7.0) and was subsequently mixed with 0.075 mM inhibitors (ratio of protein to inhibitor of 1:1.5). The mixture was incubated at 4°C. The samples were taken at different time points, the reaction stopped by diluting the sample with a 200-fold excess of 1% formic acid. The denatured protein and the adducts were assessed using electrospray time-of-flight (ESI-TOF) mass spectrometry.

[2] = tested on: kinases harboring an αD-1 cysteine; experiment: Profiling at 200 nM against kinases with an αD-1 cysteine; format: biochemical; details: 200 nM compound
Experimental: (§1) If not mentioned differently, in vitro profiling of compounds was performed at Reaction Biology Corporation using the HotSpot™ assay platform.

[3] = target: T2, JAK3 (Homo sapiens, UniProt P52333); experiment: JAK3 ELISA assay; format: biochemical; details: Determined in a JAK3 ELISA assay
T2 construct: purchased Reaction Biology Corporation
T2 sequence (P52333 1-1124): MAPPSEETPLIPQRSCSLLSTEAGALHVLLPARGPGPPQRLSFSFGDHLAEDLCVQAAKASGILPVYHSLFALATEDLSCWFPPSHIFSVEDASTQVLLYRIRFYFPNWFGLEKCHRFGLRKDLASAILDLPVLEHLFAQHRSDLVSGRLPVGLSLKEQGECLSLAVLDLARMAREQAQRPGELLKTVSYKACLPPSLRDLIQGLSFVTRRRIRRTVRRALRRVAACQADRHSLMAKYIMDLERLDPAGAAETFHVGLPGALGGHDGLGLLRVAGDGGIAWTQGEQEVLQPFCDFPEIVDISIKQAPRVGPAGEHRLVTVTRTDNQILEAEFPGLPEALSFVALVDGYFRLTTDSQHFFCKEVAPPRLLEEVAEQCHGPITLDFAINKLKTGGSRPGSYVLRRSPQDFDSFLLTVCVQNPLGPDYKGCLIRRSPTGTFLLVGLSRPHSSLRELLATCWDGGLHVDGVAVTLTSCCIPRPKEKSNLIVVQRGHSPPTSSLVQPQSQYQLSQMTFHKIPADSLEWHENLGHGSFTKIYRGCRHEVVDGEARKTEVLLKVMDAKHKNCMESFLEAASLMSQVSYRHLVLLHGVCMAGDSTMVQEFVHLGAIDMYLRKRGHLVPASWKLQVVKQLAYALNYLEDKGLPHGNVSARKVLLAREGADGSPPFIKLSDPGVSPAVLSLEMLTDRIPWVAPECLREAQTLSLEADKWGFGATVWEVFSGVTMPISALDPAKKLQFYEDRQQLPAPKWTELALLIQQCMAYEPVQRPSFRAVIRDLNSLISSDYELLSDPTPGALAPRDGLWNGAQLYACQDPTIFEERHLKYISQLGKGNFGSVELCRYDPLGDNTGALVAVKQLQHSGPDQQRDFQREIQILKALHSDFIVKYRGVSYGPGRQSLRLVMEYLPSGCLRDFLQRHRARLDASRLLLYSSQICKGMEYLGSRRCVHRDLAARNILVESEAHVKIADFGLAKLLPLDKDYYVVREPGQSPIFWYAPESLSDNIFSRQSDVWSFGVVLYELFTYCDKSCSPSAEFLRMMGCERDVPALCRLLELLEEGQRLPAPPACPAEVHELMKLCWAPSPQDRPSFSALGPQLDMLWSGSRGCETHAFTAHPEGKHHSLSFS

[4] = target: T3, kinase domain of JAK3 (Homo sapiens, UniProt P52333); experiment: Thermal shift (ΔTm) assay; format: binding; details: 2 μM kinase domain, 10 μM inhibitor; mean ± SD of at least three measurements
T3 construct: The kinase domains of JAK3 and BMX at 2 μM; made in house
Experimental: (§2) The kinase domains of JAK3 and BMX at 2 μM were mixed with the inhibitors at 10 μM, and subsequently SyPRO orange dye (Invitrogen Carlsbad, CA, USA) was added. The thermal shift assay and data evaluation were performed as described previously using a Real-Time PCR Mx3005p machine (Stratagene, La Jolla, CA, USA).

[5] = target: T1, kinase domain of BMX; experiment: Thermal shift (ΔTm) assay; format: binding; details: 2 μM kinase domain, 10 μM inhibitor; mean ± SD of at least three measurements
Experimental: as §2

[6] = target: T4, JAK2 (Homo sapiens, UniProt O60674); experiment: Radiometric kinase assay (Reaction Biology HotSpot); format: biochemical; details: five-dose singlicate, [ATP] = 10 μM
T4 construct: purchased Reaction Biology Corporation
T4 sequence (O60674 whole entry): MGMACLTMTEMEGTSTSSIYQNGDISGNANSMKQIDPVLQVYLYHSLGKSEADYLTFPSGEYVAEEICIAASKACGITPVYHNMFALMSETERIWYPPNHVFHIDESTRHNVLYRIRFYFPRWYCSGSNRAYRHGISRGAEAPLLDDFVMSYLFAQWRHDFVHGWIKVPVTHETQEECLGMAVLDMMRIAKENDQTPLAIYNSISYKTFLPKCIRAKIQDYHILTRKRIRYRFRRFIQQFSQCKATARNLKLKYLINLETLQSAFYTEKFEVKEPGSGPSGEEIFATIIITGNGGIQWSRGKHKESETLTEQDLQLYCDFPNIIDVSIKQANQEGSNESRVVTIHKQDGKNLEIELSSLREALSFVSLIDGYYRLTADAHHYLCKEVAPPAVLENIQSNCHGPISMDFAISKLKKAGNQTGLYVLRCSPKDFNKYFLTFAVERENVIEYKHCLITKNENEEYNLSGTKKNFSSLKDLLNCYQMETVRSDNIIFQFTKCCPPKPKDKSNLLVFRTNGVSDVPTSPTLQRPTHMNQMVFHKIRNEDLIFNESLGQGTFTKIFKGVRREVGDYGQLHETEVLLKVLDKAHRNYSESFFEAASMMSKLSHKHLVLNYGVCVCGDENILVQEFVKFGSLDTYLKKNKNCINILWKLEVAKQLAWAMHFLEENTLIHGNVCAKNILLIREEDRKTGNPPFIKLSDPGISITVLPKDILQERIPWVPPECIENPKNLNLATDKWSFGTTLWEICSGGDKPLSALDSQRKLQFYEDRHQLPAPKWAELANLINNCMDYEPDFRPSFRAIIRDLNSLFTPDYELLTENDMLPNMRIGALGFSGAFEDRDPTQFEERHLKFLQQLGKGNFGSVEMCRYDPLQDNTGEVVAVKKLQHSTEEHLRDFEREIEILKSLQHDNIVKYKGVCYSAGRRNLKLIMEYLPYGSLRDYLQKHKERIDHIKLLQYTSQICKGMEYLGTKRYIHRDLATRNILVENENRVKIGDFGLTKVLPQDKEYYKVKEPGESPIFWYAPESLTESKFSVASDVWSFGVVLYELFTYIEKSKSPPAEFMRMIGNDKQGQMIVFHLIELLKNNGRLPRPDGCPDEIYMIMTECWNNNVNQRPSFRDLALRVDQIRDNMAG
Experimental: as §1

[7] = target: T5, TYK2 (Homo sapiens, UniProt P29597); experiment: as above; format: biochemical; details: five-dose singlicate, [ATP] = 10 μM
T5 construct: purchased Reaction Biology Corporation
T5 sequence (P29597 whole entry): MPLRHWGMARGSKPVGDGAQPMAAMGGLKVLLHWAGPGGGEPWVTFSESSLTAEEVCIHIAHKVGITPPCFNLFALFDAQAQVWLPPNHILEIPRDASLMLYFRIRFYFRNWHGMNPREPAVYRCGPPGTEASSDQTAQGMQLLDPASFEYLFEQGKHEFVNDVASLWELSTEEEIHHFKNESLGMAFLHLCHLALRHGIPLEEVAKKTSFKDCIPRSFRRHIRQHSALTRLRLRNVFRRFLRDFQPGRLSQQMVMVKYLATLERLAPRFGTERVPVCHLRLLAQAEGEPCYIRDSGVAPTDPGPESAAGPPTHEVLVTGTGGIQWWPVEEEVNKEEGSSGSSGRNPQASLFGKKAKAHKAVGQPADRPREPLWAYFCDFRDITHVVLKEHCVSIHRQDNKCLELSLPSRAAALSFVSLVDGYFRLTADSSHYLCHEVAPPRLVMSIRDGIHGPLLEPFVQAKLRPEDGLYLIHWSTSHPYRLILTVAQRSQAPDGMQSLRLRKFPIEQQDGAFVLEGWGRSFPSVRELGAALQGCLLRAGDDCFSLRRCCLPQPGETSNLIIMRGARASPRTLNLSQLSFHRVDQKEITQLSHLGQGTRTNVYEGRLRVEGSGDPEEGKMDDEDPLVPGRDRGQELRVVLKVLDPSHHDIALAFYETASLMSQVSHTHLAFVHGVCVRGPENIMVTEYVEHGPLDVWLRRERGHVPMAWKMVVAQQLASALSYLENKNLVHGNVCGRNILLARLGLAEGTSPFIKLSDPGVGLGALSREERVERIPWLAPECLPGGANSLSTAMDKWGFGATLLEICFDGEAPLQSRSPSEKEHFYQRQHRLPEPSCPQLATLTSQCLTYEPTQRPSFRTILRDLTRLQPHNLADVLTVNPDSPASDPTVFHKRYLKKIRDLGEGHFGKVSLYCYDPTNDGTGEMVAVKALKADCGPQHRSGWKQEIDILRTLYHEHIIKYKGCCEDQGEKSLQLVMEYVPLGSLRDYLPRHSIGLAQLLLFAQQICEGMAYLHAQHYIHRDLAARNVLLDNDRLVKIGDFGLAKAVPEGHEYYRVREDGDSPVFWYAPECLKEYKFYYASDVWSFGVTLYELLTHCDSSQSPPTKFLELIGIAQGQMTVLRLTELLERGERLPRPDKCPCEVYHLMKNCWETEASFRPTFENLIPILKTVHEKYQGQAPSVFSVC
Experimental: as §1

[8] = target: T6, JAK1 (Homo sapiens, UniProt P23458); experiment: as above; format: biochemical; details: five-dose singlicate, [ATP] = 10 μM
T6 construct: purchased Reaction Biology Corporation
T6 sequence (P23458 whole entry): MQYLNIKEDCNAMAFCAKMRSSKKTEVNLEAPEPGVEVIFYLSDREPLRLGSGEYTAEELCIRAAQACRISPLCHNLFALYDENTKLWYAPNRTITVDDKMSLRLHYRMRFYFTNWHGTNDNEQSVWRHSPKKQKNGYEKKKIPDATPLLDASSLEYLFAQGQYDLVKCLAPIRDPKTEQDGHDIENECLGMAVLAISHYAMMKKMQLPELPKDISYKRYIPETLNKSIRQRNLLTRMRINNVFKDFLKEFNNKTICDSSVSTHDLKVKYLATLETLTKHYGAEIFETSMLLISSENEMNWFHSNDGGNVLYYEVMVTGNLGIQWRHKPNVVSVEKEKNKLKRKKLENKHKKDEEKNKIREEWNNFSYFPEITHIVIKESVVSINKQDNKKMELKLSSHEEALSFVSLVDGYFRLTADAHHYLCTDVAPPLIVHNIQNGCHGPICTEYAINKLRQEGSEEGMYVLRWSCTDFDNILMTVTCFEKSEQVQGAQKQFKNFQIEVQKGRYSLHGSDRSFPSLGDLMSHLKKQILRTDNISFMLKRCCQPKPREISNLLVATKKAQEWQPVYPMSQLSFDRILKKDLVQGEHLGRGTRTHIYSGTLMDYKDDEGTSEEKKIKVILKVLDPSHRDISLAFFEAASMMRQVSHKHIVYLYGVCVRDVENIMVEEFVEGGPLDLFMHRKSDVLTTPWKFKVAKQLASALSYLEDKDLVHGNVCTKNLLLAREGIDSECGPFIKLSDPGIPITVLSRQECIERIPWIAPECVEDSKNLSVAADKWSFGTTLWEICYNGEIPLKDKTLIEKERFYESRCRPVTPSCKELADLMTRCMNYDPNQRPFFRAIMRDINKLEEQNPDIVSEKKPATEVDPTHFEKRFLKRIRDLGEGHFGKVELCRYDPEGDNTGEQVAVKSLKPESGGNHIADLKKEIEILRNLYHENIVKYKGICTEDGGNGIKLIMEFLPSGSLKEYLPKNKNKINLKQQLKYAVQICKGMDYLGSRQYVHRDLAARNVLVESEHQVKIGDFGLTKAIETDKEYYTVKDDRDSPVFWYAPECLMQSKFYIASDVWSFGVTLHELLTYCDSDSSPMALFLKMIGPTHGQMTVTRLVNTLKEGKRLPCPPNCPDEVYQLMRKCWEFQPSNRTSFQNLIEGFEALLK
Experimental: as §1

[9] = tested on: glutathione (GSH); experiment: Glutathione reactivity / stability against GSH; format: physicochemical; details: glutathione (GSH) in PBS buffer, pH 7.4, 5 mM GSH, read-out: half-life (t1/2) against glutathione (converted)
Experimental: A total of 5 µL of a 10 mM compound stock solution in DMSO were added to 5 µL of a 4 mM Indoprofen solution in PBS as internal standard. The mixture was diluted with PBS buffer to a total volume of 1 mL of component A. Additionally, a freshly prepared solution of 10 mM GSH in PBS buffer was used as component B. A total of 250 µL of each component was mixed and immediately subjected to HPLC analysis for t^0 measurement. The probes were stored at 40 °C in between the respective injections. t1/2 was determined by plotting natural logarithm of AUC/AUC0 against time.

native (unmodified) BMX fraction, 30 min [1] [%]	native (unmodified) BMX fraction, 60 min [1] [%]	native (unmodified) BMX fraction, 120 min [1] [%]	native (unmodified) BMX fraction, 240 min [1] [%]	covalent labeling of BMX (in words) ([1]; 1.5-fold molar excess)	IC50 [3] [nM]	ΔTm at 10 µM [4] [°C]	ΔTm at 10 µM [5] [°C]	BMX covalent adduct fraction, 30 min [1] [%]	BMX covalent adduct fraction, 60 min [1] [%]	BMX covalent adduct fraction, 120 min [1] [%]	BMX covalent adduct fraction, 240 min [1] [%]	exposure required to approach full target modification ([1]; 1.5-fold molar excess) [min]	IC50 [6] [nM]	IC50 [7] [nM]	IC50 [8] [nM]	half-life at 25 µM [9] [h]	SMILES	activity at 200 nM on kinases harboring an αD-1 cysteine [2]
100	100	100	100	no modification was detectable	–	–	–	–	–	–	–	–	–	–	–	–	CCC(=O)Nc1cccc(-c2c[nH]c3ncc(NC(=O)C4CCCC4)cc23)c1 [Compound 12b, N-(3-(3-propionamidophenyl)-1H-pyrrolo[2,3-b]pyridin-5-yl)cyclopentanecarboxamide]	–
40	33	11	3	–	> 10000	9.12 ± 0.02	5.31 ± 0.18	60	67	89	97	240	–	–	–	–	C=CC(=O)Nc1cccc(-c2c[nH]c3ncc(C(=O)NC4CCCC4)cc23)c1 [Compound 11a, 3-(3-acrylamidophenyl)-N-cyclopentyl-1H-pyrrolo[2,3-b]pyridine-5-carboxamide]	did not show substantial activity
–	–	–	–	complete labeling	–	7.36 ± 0.44	11.52 ± 0.08	100	100	100	100	–	–	–	–	9.98	C=CC(=O)Nc1cccc(-c2c[nH]c3ncc(NC(=O)c4cccs4)cc23)c1 [Compound 12c, N-(3-(3-acrylamidophenyl)-1H-pyrrolo[2,3-b]pyridin-5-yl)thiophene-2-carboxamide]	–

Continued, compound first:

SMILES	native (unmodified) BMX fraction, 30 min [1] [%]	native (unmodified) BMX fraction, 60 min [1] [%]	native (unmodified) BMX fraction, 120 min [1] [%]	native (unmodified) BMX fraction, 240 min [1] [%]	covalent labeling of BMX (in words) ([1]; 1.5-fold molar excess)	IC50 [3] [nM]	ΔTm at 10 µM [4] [°C]	ΔTm at 10 µM [5] [°C]	BMX covalent adduct fraction, 30 min [1] [%]	BMX covalent adduct fraction, 60 min [1] [%]	BMX covalent adduct fraction, 120 min [1] [%]	BMX covalent adduct fraction, 240 min [1] [%]	exposure required to approach full target modification ([1]; 1.5-fold molar excess) [min]	IC50 [6] [nM]	IC50 [7] [nM]	IC50 [8] [nM]	half-life at 25 µM [9] [h]	activity at 200 nM on kinases harboring an αD-1 cysteine [2]
C=CC(=O)Nc1cccc(-c2c[nH]c3ncccc23)c1 [Compound 9a, N-(3-(1H-pyrrolo[2,3-b]pyridin-3-yl)phenyl)acrylamide]	–	–	–	–	complete labeling	–	–	–	100	100	100	100	–	3580	5540	2970	–	–
C=CC(=O)Nc1cccc(-c2c[nH]c3ncc(C(N)=O)cc23)c1 [Compound 10a, 3-(3-acrylamidophenyl)-1H-pyrrolo[2,3-b]pyridine-5-carboxamide]	–	–	–	–	complete labeling	–	21.07 ± 0.03	10.49 ± 0.09	99	100	100	100	–	1120	1900	460	–	–
